# Test results taken from patent US9296749B2, “Crystalline cis-(E)-4-(3-fluorophenyl)-2′,3′,4′,9′-tetrahydro-N,N-dimethyl-2′-(1-oxo-3-phenyl-2-propenyl)-spiro[cyclohexane-1,1′[1H]” (priority 2013, dated 2016).
# Tests used:
# Assay type in all cases: physicochemical
# [1] = Chemical stability of crystalline forms, open-vial storage (content by HPLC, crystalline form by XRPD)
# Experimental: Samples of compound 1 in different crystalline forms were stored in open vials under controlled conditions at different temperatures and rel. humidities for 28 days. Prior to storage and after 14 and 28 days the content of compound (1) in the sample was determined via HPLC and the crystalline form was measured via XRPD.
# [2] = Chemical stability in pharmaceutical compositions (excipient mixtures with 10% compound (1)); settings: listed as B
# Experimental: To test the chemical stability, i.e. compatibility of different crystalline forms of compound (1), solid multi component mixtures were prepared comprising well established excipients used for solid oral dosage form and having different functions therein. The single components of each mixture were exactly weighed and intensively triturated using a mortar and a pestle.
# 10 g of the final mixtures were separately filled into glass vials (open or closed) and stored under the conditions outlined below in table 13. Samples were taken and analyzed initially and after 1, 2 and 3 months with respect to the content of compound (1) within the mixtures.
# [3] = Dynamic vapor sorption (DVS), hygroscopicity
# Experimental: Crystalline forms were characterized by dynamic vapor sorption (DVS) using a Porotec DVS 1000 or a SMS DVS Intrinsic water vapor sorption analyzer. For the DVS analysis, a step width of 10% r.h. was applied allowing the samples to equilibrate and reach weight constancy (±0.002%) for at least 10 min on each step. All measurements were performed according to the following program: 50% r.h.→90% r.h., 90→0% r.h., 0%→90% r.h., 90%→50% r.h. A cycle with increasing humidity is also known as a sorption cycle, a cycle with decreasing humidity is also known as a desorption cycle. The details of the respective DVS measurements are shown below in table 51 and discussed further below.
# The hygroscopicity of the respective crystalline forms determined via the DVS measurements was classified according to the ranges for mass increase defined in the European Pharmacopoeia: very hygroscopic (vh): increase of the mass ≧15%; hygroscopic (h): increase of the mass is less than 15% and equal or greater than 2%; slightly hygroscopic (sh): increase of the mass is less than 2% and equal or greater than 0.2%; not hygroscopic (nh): increase of the mass is less than 0.2%; deliquescent (d): sufficient water is absorbed to form a liquid.
# [4] = Stability of crystalline form B on drying at reduced pressure; settings: dried at 50±2° C., about 7 mBar, 72 hours
# Experimental: The samples were let to cool to room temperature under ambient conditions before they were analyzed.
# [5] = Storage of crystalline form C, X-ray diffraction; settings: stored for up to 4 months
structure (smiles),measurement,setting,value
"CN(C)[C@]1(c2cccc(F)c2)CC[C@]2(CC1)c1[nH]c3ccccc3c1CCN2C(=O)/C=C/c1ccccc1 [crystalline form B, cis-(E)-4-(3-Fluorophenyl)-2′,3′,4′,9′-tetrahydro-N,N-dimethyl-2′-(1-oxo-3-phenyl-2-propenyl)-spiro[cyclohexane-1,1′[1H]-pyrido[3,4-b]indol]-4-amine]",Content cmpd (1),"[1]; 40° C., 75% r.H., storage 0 d, listed as B",84.85%
same,Content cmpd (1),"[1]; 40° C., 75% r.H., storage 14 d, listed as B",84.21%
same,Content cmpd (1),"[1]; 40° C., 75% r.H., storage 28 d, listed as B",83.74%
same,Content cmpd (1),"[1]; 50° C., storage 0 d, listed as B",84.85%
same,Content cmpd (1),"[1]; 50° C., storage 14 d, listed as B",82.63%
same,Content cmpd (1),"[1]; 50° C., storage 28 d, listed as B",81.26%
same,content of compound (1) within the mixture,"[2]; Lactose monohydrate, PVP25, Crospovidone, Talcum, 40° C., 75% rel. hum., 0 month",99.57
same,content of compound (1) within the mixture,"[2]; Lactose monohydrate, PVP25, Crospovidone, Talcum, 40° C., 75% rel. hum., 1 month",99.22
same,content of compound (1) within the mixture,"[2]; Lactose monohydrate, PVP25, Crospovidone, Talcum, 40° C., 75% rel. hum., 2 months",99.05
same,content of compound (1) within the mixture,"[2]; Lactose monohydrate, PVP25, Crospovidone, Talcum, 40° C., 75% rel. hum., 3 months",96.87
same,content of compound (1) within the mixture,"[2]; Lactose monohydrate, PVP25, Crospovidone, Talcum, 50° C. dry, 0 month",99.57
same,content of compound (1) within the mixture,"[2]; Lactose monohydrate, PVP25, Crospovidone, Talcum, 50° C. dry, 1 month",95.82
same,content of compound (1) within the mixture,"[2]; Lactose monohydrate, PVP25, Crospovidone, Talcum, 50° C. dry, 2 months",91.04
same,content of compound (1) within the mixture,"[2]; Lactose monohydrate, PVP25, Crospovidone, Talcum, 50° C. dry, 3 months",85.33
same,content of compound (1) within the mixture,"[2]; Microcrystalline cellulose, HPMC 6 mPas, L-HPC LH21, magnesium stearate, 40° C., 75% rel. hum., 0 month",99.69
same,content of compound (1) within the mixture,"[2]; Microcrystalline cellulose, HPMC 6 mPas, L-HPC LH21, magnesium stearate, 40° C., 75% rel. hum., 1 month",99.53
same,content of compound (1) within the mixture,"[2]; Microcrystalline cellulose, HPMC 6 mPas, L-HPC LH21, magnesium stearate, 40° C., 75% rel. hum., 2 months",98.57
same,content of compound (1) within the mixture,"[2]; Microcrystalline cellulose, HPMC 6 mPas, L-HPC LH21, magnesium stearate, 40° C., 75% rel. hum., 3 months",99.39
same,content of compound (1) within the mixture,"[2]; Microcrystalline cellulose, HPMC 6 mPas, L-HPC LH21, magnesium stearate, 50° C. dry, 0 month",99.75
same,content of compound (1) within the mixture,"[2]; Microcrystalline cellulose, HPMC 6 mPas, L-HPC LH21, magnesium stearate, 50° C. dry, 1 month",95.74
same,content of compound (1) within the mixture,"[2]; Microcrystalline cellulose, HPMC 6 mPas, L-HPC LH21, magnesium stearate, 50° C. dry, 2 months",91.45
same,content of compound (1) within the mixture,"[2]; Microcrystalline cellulose, HPMC 6 mPas, L-HPC LH21, magnesium stearate, 50° C. dry, 3 months",87.34
same,hysteresis,[3]; between 10% to 40% relative humidity,> 0.5%
same,resulting crystalline form,[4],crystalline form B
"CN(C)[C@]1(c2cccc(F)c2)CC[C@]2(CC1)c1[nH]c3ccccc3c1CCN2C(=O)/C=C/c1ccccc1 [crystalline form C, cis-(E)-4-(3-Fluorophenyl)-2′,3′,4′,9′-tetrahydro-N,N-dimethyl-2′-(1-oxo-3-phenyl-2-propenyl)-spiro[cyclohexane-1,1′[1H]-pyrido[3,4-b]indol]-4-amine]",Content cmpd (1),"[1]; 40° C., 75% r.H., storage 0 d, listed as C",99.67%
same,Content cmpd (1),"[1]; 40° C., 75% r.H., storage 14 d, listed as C",99.68%
same,Content cmpd (1),"[1]; 40° C., 75% r.H., storage 28 d, listed as C",99.44%
same,Content cmpd (1),"[1]; 50° C., storage 0 d, listed as C",99.67%
same,Content cmpd (1),"[1]; 50° C., storage 14 d, listed as C",99.57%
same,Content cmpd (1),"[1]; 50° C., storage 28 d, listed as C",99.20%
same,weight loss,[3]; desorption cycle from 90 to 0% r.h.,about 6.6%
same,change in mass,[3]; sorption cycle from 50% to 90% relative humidity,no major change in mass
same,weight gain at 90%,[3]; subsequent sorption cycle,about 2.8%
same,conversion on storage,[5],converted to Polymorph I in three to four months
